These results are taken from article PMC8296573, “Synthesis and Biological Evaluation of Fingolimod Derivatives as Antibacterial Agents” (ACS Omega, 2021).

Data set [1] in a line: Cytotoxicity, resazurin staining assay. The following applies: human, 24 h incubation. Type of data set: cell-based, human. The protocol: The cytotoxicity of the compounds was assessed on the three different human cell lines, A549, HEp-2, and HL-60, using the redox-based resazurin staining assay. The cells were seeded in clear 96-well plates at a density of 1 × 10^4 cells per well in a volume of 200 μL per well. The adherent cells were let to attach for 24 h before changing the media and adding the compounds (final concentration of 0.25% DMSO). HL-60 were counted and added to the plates at a density of 1 × 10^4 cells per well in a volume of 200 μL directly with the compounds. Untreated cells were used as negative controls, and cells treated with 1% TritonX-100 (Sigma-Aldrich, St. Louis, MO) were used as positive controls for cytotoxicity. The cells were incubated with the compounds for 24 h.
For the resazurin assay, the media was first removed, and the adherent cells were washed once with PBS. Then, 200 μL of 20 μM resazurin was added per well and cells were incubated for two more hours before the measurement of fluorescence, as mentioned earlier. For HL-60, 10 μL of 400 μM resazurin was added directly to the wells and the cells were incubated for an additional 4 h before the measurement of fluorescence.
Background: Resazurin is reduced to fluorescent resorufin, in cell work by metabolically active cells.

Another data set deals with S. aureus ATCC 12598. Put plainly: Antibacterial activity, pre-exposure. Type of data set: cell-based, Staphylococcus aureus. Conditions: for Average inhibition %, biofilms viability / Average inhibition %, planktonic cells viability / inhibition at 5 µM / inhibition at 10 µM / inhibition at 15 µM / inhibition at 25 µM: S. aureus ATCC 12598, pre-exposure, ± SD; for inhibition at 5 µM / inhibition at 10 µM / inhibition at 15 µM / inhibition at 25 µM / MIC: Staphylococcus aureus, ATCC12598; for MIC: pre-exposure, 18 h, read-out: MIC S. aureus ATCC 12598. The procedure: (§1) The antimicrobial activity was assessed in a similar way for the initial screening and the dose–response evaluation against different bacterial strains. With the exception of the post-exposure experiment, the compounds were added to the wells along with the bacteria to test the ability of compounds to prevent bacterial growth and biofilm formation (pre-exposure). The compounds were diluted in DMSO and plated directly in 96-well plates before adding the bacterial culture, and plates were incubated for 18 h under aerobic conditions at 37 °C with shaking (220 rpm). The antibacterial activity of the compounds was assessed on planktonic cells and biofilms separately using two different measurements for each: optical density (turbidity) and resazurin reduction (viability) on planktonic cells and resazurin followed by a crystal violet staining assay (total biomass) on biofilms, as described in the following sections.
(§2) The resazurin staining was performed according to the protocol previously optimized with a few modifications.[46] Briefly, the planktonic solution was first transferred into a new 96-well plate and the OD of the planktonic solution was measured using a Varioskan LUX Multimode microplate reader (Thermo Scientific, Vantaa, Finland). Then, 10 μL of a 400 μM resazurin (R7017, Sigma-Aldrich, St. Louis, MO) diluted in phosphate-buffered saline (PBS) (Thermo Fisher Scientific, MA) was added to the wells (for a final resazurin concentration of 20 μM). The plate was incubated in the dark with shaking (220 rpm) for about 3–10 min at room temperature with S. aureus and A. baumannii (until the bacteria controls turned pink) or for 20 min at 37 °C with P. aeruginosa. Fluorescence was measured at λex = 560 nm and λem = 590 nm using the top optics of the Varioskan LUX Multimode microplate reader. The planktonic plate was then discarded. The original challenge plate containing the biofilms was washed once with PBS, and 200 μL of a 20 μM resazurin solution was added to the wells. The plate was incubated in the dark at 37 °C with shaking (220 rpm) for 30 min with S. aureus, 60 min with A. baumannii, and 90 min with P. aeruginosa. Fluorescence was measured as described for the planktonic solution. The biofilms were next treated with crystal violet staining.
(§3) After removing the resazurin solution from the plate, biofilms were fixed with ethanol 100% for 15 min at room temperature. Ethanol was then removed, and the biofilms were left to air-dry completely at RT. Crystal violet, diluted to 1:100 in deionized water from the 2.3% commercial solution (HT90132, Sigma-Aldrich, St. Louis, MO), was added to the wells and, after a 5 min incubation with the dye, the biofilms were washed twice with deionized water and left to air-dry for about 10 min. The dye was solubilized in ethanol 100% for 1 h, and absorbance was measured at 595 nm using a Multiskan Sky microplate spectrophotometer (Thermo Scientific, Vantaa, Finland).

For another data set, the system named is S. aureus P2. Put plainly: Antibacterial activity, pre-exposure. Type of data set: cell-based, Staphylococcus aureus. Conditions: for Average inhibition %, biofilms viability / Average inhibition %, planktonic cells viability / inhibition at 5 µM / inhibition at 10 µM / inhibition at 15 µM / inhibition at 25 µM: S. aureus P2, pre-exposure, ± SD; for MIC / inhibition at 5 µM / inhibition at 10 µM / inhibition at 15 µM / inhibition at 25 µM: Staphylococcus aureus; for MIC: P2, pre-exposure, 18 h. The protocol:
as §1, §2, §3

Where [2] appears, read: 5 µM, read-out: Average inhibition %, biofilms biomass.
[3] abbreviates: 5 µM, read-out: Average inhibition %, planktonic cells turbidity.
The mark [4] stands for this setting: 10 µM, read-out: Average inhibition %, biofilms biomass.
The mark [5] stands for this setting: 10 µM, read-out: Average inhibition %, planktonic cells turbidity.
Where [6] appears, read: 15 µM, read-out: Average inhibition %, biofilms biomass.
The mark [7] stands for this setting: 15 µM, read-out: Average inhibition %, planktonic cells turbidity.
[8] abbreviates: 25 µM, read-out: Average inhibition %, biofilms biomass.
Where [9] appears, read: 25 µM, read-out: Average inhibition %, planktonic cells turbidity.

The structures appear in SMILES notation. ≈ marks a conversion by molar mass, not a printed value. Read-outs that look alike come from different tables or passages of the source.

On to `CCCCCCCCCCc1ccc(CCC(N)(CO)CO)nc1` [Compound 62, 2-Amino-2-[2-(5-decylpyridin-2-yl)ethyl]propane-1,3-diol], for which the figures for the CC50 at 24 h in data set [1] (A549 cells), in data set [1] (HEp-2 cells) and in data set [1] (HL-60 cells) were 27.6 ± 6.4 µM, 30.9 ± 6.2 µM and 3.6 ± 0.4 µM, respectively.
For the molecule `CCCCCCCCc1ccc2nc(CCC(N)(CO)CO)ccc2c1` [Compound 80, 2-Amino-2-[2-(6-octylquinolin-2-yl)ethyl]propane-1,3-diol], the “Average inhibition %, biofilms viability” value with S. aureus ATCC 12598 (5 µM) was 24.6 ± 6.8%; with S. aureus ATCC 12598 (10 µM) it was 99.2 ± 0.3%; with S. aureus ATCC 12598 (15 µM), 99.5 ± 0.1%; in the data set with S. aureus ATCC 12598 (25 µM) it was 99.5 ± 0.2%; in the data set with S. aureus P2 (5 µM), 45.2 ± 2.1%; in the data set with S. aureus P2 (10 µM), 99.5 ± 0.1%. For the same molecule, the “Average inhibition %, biofilms viability” value with S. aureus P2 (15 µM) and in the data set with S. aureus P2 (25 µM) was 99.5 ± 0% throughout. Moreover, the “Average inhibition %, planktonic cells viability” value with S. aureus ATCC 12598 (5 µM) is 7.3 ± 12.6%; in the data set with S. aureus ATCC 12598 (10 µM), 99.7 ± 0%; with S. aureus ATCC 12598 (15 µM), 99.6 ± 0%; in the data set on S. aureus ATCC 12598 (25 µM), 99.6 ± 0%; with S. aureus P2 (5 µM), 20.6 ± 21.6%; in the data set with S. aureus P2 (10 µM), 99.7 ± 0.2%. The results for the “Average inhibition %, planktonic cells viability” value in the data set with S. aureus P2 (15 µM) and with S. aureus P2 (25 µM) were 99.6 ± 0.1% and 99.5 ± 0.1%, respectively. The inhibition (usually the percentage by which the read-out fell short of the control) at 5 µM worked out at 34.3 ± 18.8% with S. aureus ATCC 12598 (setting [2]), 22.7 ± 5.4% with S. aureus ATCC 12598 (setting [3]), 57.3 ± 10.2% in the data set with S. aureus P2 (setting [2]) and 3.3 ± 5.4% in the data set on S. aureus P2 (setting [3]). Also, the inhibition at 10 µM worked out at 96.5 ± 1% with S. aureus ATCC 12598 (setting [4]), 99.6% in the data set on S. aureus ATCC 12598 (setting [5]), 95.4 ± 2.9% in the data set on S. aureus P2 (setting [4]) and 99.6 ± 0.1% in the data set on S. aureus P2 (setting [5]). In addition, the inhibition at 15 µM in the data set with S. aureus ATCC 12598 (setting [6]) amounted to 93.4 ± 1.2%; with S. aureus ATCC 12598 (setting [7]) it was 99.5 ± 0.1%; in the data set with S. aureus P2 (setting [6]), 95.3 ± 0.8%; in the data set on S. aureus P2 (setting [7]), 99.3%. Further, the inhibition at 25 µM in the data set on S. aureus ATCC 12598 (setting [8]) was 89.4 ± 0.6%; with S. aureus ATCC 12598 (setting [9]), 98.9 ± 0.3%; with S. aureus P2 (setting [8]), 90.6 ± 1%; in the data set with S. aureus P2 (setting [9]) it was 98.8 ± 0.2%. The MIC in the data set with S. aureus ATCC 12598 and against S. aureus P2 was 10 µM (≈ 3.59 µg/mL) in each case.
In the case of `CCCCCCCCCCc1ccc2nc(CCC(N)(CO)CO)ccc2c1` [Compound 81, 2-Amino-2-[2-(6-decylquinolin-2-yl)ethyl]propane-1,3-diol], the “Average inhibition %, biofilms viability” value in the data set with S. aureus ATCC 12598 (5 µM) is 15.6 ± 9.7%; in the data set with S. aureus ATCC 12598 (10 µM) it was 99.4 ± 0%; in the data set with S. aureus ATCC 12598 (15 µM), 99.7 ± 0.1%; in the data set with S. aureus ATCC 12598 (25 µM) it was 99.7 ± 0.1%; in the data set with S. aureus P2 (5 µM) it was 37.3 ± 3.3%; with S. aureus P2 (10 µM), 99.6 ± 0.1%. Also, the “Average inhibition %, biofilms viability” value in the data set on S. aureus P2 (15 µM) and in the data set on S. aureus P2 (25 µM) was 99.6 ± 0% throughout. Moreover, the “Average inhibition %, planktonic cells viability” value is 4.2 ± 7.3% in the data set with S. aureus ATCC 12598 (5 µM); 99.7 ± 0% with S. aureus ATCC 12598 (10 µM); 99.8 ± 0.1% in the data set with S. aureus ATCC 12598 (15 µM); 99.6 ± 0.1% in the data set with S. aureus ATCC 12598 (25 µM); 42.9 ± 19.7% in the data set with S. aureus P2 (5 µM); 99.6 ± 0.2% in the data set with S. aureus P2 (10 µM). In addition, the “Average inhibition %, planktonic cells viability” value in the data set with S. aureus P2 (15 µM) is 99.6 ± 0.1%; in the data set with S. aureus P2 (25 µM) it was 99.6 ± 0.2%. For the same molecule, the inhibition at 5 µM in the data set on S. aureus ATCC 12598 (setting [2]) came out at 19.1 ± 26.4%; in the data set with S. aureus ATCC 12598 (setting [3]), 2.1 ± 3.7%; in the data set on S. aureus P2 (setting [2]) it was 48.4 ± 15.7%; in the data set with S. aureus P2 (setting [3]) it was 0%. The inhibition at 10 µM with S. aureus ATCC 12598 (setting [4]) turned out to be 96 ± 0.6%; with S. aureus ATCC 12598 (setting [5]) it was 99.8 ± 0.1%; in the data set with S. aureus P2 (setting [4]), 96.6 ± 0.4%; with S. aureus P2 (setting [5]), 99.8 ± 0.1%. In addition, the inhibition at 15 µM with S. aureus ATCC 12598 (setting [6]) was found to be 93.5 ± 1.8%; in the data set with S. aureus ATCC 12598 (setting [7]), 99.7 ± 0.1%; in the data set with S. aureus P2 (setting [6]) it was 94.5 ± 0.6%; in the data set with S. aureus P2 (setting [7]), 99.7 ± 0.1%. The inhibition at 25 µM turned out to be 88.7 ± 2% in the data set on S. aureus ATCC 12598 (setting [8]), 99.3 ± 0.2% in the data set on S. aureus ATCC 12598 (setting [9]), 89.1 ± 0.6% in the data set on S. aureus P2 (setting [8]) and 99.2 ± 0.2% in the data set with S. aureus P2 (setting [9]).
With `CCCCCCCCCCc1ccc2nc(CC(N)(CO)CO)ccc2c1` [Compound 83, 2-Amino-2-[(6-decylquinolin-2-yl)methyl]propane-1,3-diol], the MIC in the data set with S. aureus ATCC 12598 and in the data set on S. aureus P2 was 10 µM (≈ 3.73 µg/mL) each time.
